PubChem BioAssay (NCI)
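Compound exposure: 48 hours, 5 concentrations, 96-well plates. Abbreviation: GI50, concentration required for 50% inhibition of growth. TGI: concentration producing complete growth inhibition.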 Where a SMILES comes first, the peptide text is derived from it.

Columns and labels:
Assay in all cases: NCI anticancer screen, dose series, 48 h
[1] = tested on: NCI/ADR-RES ovarian
[2] = tested on: UACC-257 melanoma
[3] = tested on: UACC-62 melanoma
[4] = tested on: OVCAR-8 ovarian
[5] = tested on: HCT-116 colon
[6] = tested on: MCF7 breast
[7] = tested on: HL-60(TB) leukemia
[8] = tested on: SR leukemia
[9] = tested on: SW-620 colon
[10] = tested on: DU-145 prostate
[11] = tested on: MDA-N
[12] = tested on: SF-539 CNS
[13] = tested on: CCRF-CEM leukemia
[14] = tested on: LOX IMVI melanoma

Compound	TGI [1]	TGI [2]	TGI [3]	TGI [4]	TGI [5]	TGI [6]	TGI [7]	TGI [8]	TGI [9]	TGI [10]	TGI [11]	TGI [12]	TGI [13]	TGI [14]	GI50 [13]
Cc1cccc2c1[C@]13OC(C)[C@]4(C)CC5OC(=O)[C@@]1(C)[C@@H]5[C@]34C(=O)O2 (stereo not given in full)	> 100 µM	> 100 µM	> 100 µM	> 100 µM	> 100 µM	> 100 µM	> 100 µM	> 100 µM	> 100 µM	> 100 µM	> 100 µM	> 100 µM	> 100 µM	> 100 µM	–
CC1(C#N)CC(C)(C)C(/C=C2/CC(C)(C)C(/C=C3/OC(=N)CC3(C)C)=N2)=N1 (stereo not given)	54 µM	48.7 µM	66 µM	74 µM	> 100 µM	26.3 µM	78.1 µM	> 100 µM	> 100 µM	> 100 µM	92.1 µM	> 100 µM	> 100 µM	> 100 µM	–
O=C(CC(c1ccccc1)N1CCCCC1)c1ccccc1 (stereo not given)	60.8 µM	27.8 µM	30.7 µM	33.4 µM	19.9 µM	15.4 µM	33.7 µM	6.15 µM	18.7 µM	32.3 µM	27.3 µM	39.2 µM	4.69 µM	20.6 µM	–
COC(CN(C(=O)c1ccccc1)C1CCC2(SCCS2)c2[nH]c3ccccc3c21)OC (stereo not given)	> 100 µM	33.5 µM	–	> 100 µM	> 100 µM	> 100 µM	> 100 µM	> 100 µM	> 100 µM	> 100 µM	49 µM	> 100 µM	> 100 µM	6.67 µM	–
CC(=O)N(C(=O)CC(=O)N/N=C\c1ccc(Br)c(N(CCC#N)CCC#N)c1)c1ccc(Cl)cc1	> 100 µM	–	> 100 µM	> 100 µM	> 100 µM	> 100 µM	> 100 µM	> 100 µM	> 100 µM	> 100 µM	> 100 µM	> 100 µM	> 100 µM	> 100 µM	–
CCC(C)C(NC(=O)C(CCCCN)NC(=O)C(NC(=O)C(CCC(N)=O)NC(=O)C(N)CCCNC(=N)N)C(C)CC)C(=O)NC(Cc1c[nH]c2ccccc12)C(=O)NC(Cc1ccccc1)C(=O)NC(CCC(N)=O)C(=O)NC(CC(N)=O)C(=O)NC(CCCNC(=N)N)C(=O)NC(CCCNC(=N)N)C(=O)NC(CCSC)C(=O)NC(CCCCN)C(=O)NC(Cc1c[nH]c2ccccc12)C(=O)NC(CCCCN)C(=O)NC(CCCCN)C(=O)N1CCCC1C(=O)NC(C)C(=O)NC(CCCCN)C(=O)NC(CCCNC(=N)N)C(=O)NC(CCCCN)C(=O)NC(CC(C)C)C(=O)NC(Cc1ccccc1)C(=O)NCC(=O)O (stereo not given) (H-RQIKIWFQNRRMKWKKPAKRKLFG-OH; configuration not given here)	> 25 µM	> 25 µM	–	> 25 µM	> 25 µM	> 25 µM	17.6 µM	> 25 µM	> 25 µM	> 25 µM	> 25 µM	–	> 25 µM	> 25 µM	–
C=CCNC1=C2C[C@@H](C)C[C@@H](OC)[C@@H](OC(=O)CCCN)[C@H](C)/C=C(\C)[C@@H](OC(N)=O)[C@H](OC)/C=C\C=C(/C)C(=O)NC(=CC1=O)C2=O	> 100 µM	31.9 µM	31.8 µM	42.5 µM	52.9 µM	19.4 µM	19.7 µM	> 79 µM	> 60 µM	38.3 µM	28.4 µM	29.9 µM	28.9 µM	> 47.3 µM	–
CC(=O)Oc1ccccc1-c1cc2ccccc2oc1=O	> 100 µM	> 100 µM	–	> 100 µM	> 100 µM	> 100 µM	> 100 µM	> 100 µM	> 100 µM	> 100 µM	> 100 µM	> 100 µM	> 100 µM	> 100 µM	–
N#Cc1c(-c2ccccc2)[nH]c2ccccc2c1=O	> 100 µM	> 100 µM	> 100 µM	> 100 µM	> 100 µM	> 100 µM	> 100 µM	> 100 µM	> 100 µM	> 100 µM	> 100 µM	> 100 µM	> 100 µM	> 100 µM	–
COn1cc(C=O)c2ccccc21	> 100 µM	> 100 µM	> 100 µM	> 100 µM	> 100 µM	> 100 µM	1.52 µM	> 71.4 µM	> 100 µM	> 100 µM	62.7 µM	> 100 µM	1.34 µM	> 100 µM	–
CCN1c2nc3ccccc3nc2N(CC)c2nc3ccccc3nc21	> 100 µM	–	> 100 µM	> 100 µM	> 100 µM	> 100 µM	> 100 µM	> 100 µM	> 100 µM	> 100 µM	> 100 µM	94 µM	> 100 µM	> 100 µM	–
COC(=O)C1=C(C)NC(C)=C(C(=O)OC)C1c1ccc(/[N+]([O-])=C/c2ccccc2)cc1	> 100 µM	> 100 µM	> 100 µM	46.2 µM	30 µM	30.4 µM	63.2 µM	80 µM	35.5 µM	> 100 µM	> 100 µM	> 100 µM	48 µM	> 100 µM	–
CSC1=C(SC)SC(=C2SC3=C(SC(=C4SCCS4)S3)S2)S1	> 100 µM	> 100 µM	> 100 µM	> 100 µM	> 100 µM	> 100 µM	> 100 µM	> 100 µM	> 100 µM	> 100 µM	> 100 µM	> 100 µM	> 100 µM	> 100 µM	–
Cc1ccc(S(=O)(=O)C2=Cc3ccc(C(F)(F)F)cc3C2(O)c2cccc(C(F)(F)F)c2)cc1 (stereo not given)	8.51 µM	3.93 µM	5.71 µM	4.44 µM	3.03 µM	4.86 µM	3.66 µM	8.14 µM	3.85 µM	10.3 µM	5.88 µM	3.84 µM	8.17 µM	3.52 µM	–
COC1=C(Br)[C@H](O)[C@@]2(C=C1Br)CC(C(=O)NCCCCCN=C(N)N)=NO2	> 10 µM	> 10 µM	> 10 µM	> 10 µM	> 10 µM	> 10 µM	> 10 µM	> 10 µM	> 10 µM	> 10 µM	> 10 µM	> 10 µM	> 10 µM	> 10 µM	–
NS(=O)(=O)c1ccc(-n2c(-c3cccs3)nc3ccc(I)cc3c2=O)cc1	86.3 µM	19.3 µM	46.2 µM	> 100 µM	31 µM	65.4 µM	64.4 µM	> 100 µM	> 100 µM	35.9 µM	> 100 µM	–	> 100 µM	37 µM	41.2 µM

Compound	TGI [1]	TGI [2]	TGI [3]	TGI [4]	TGI [5]	TGI [6]	TGI [7]	TGI [8]	TGI [9]	TGI [10]	TGI [11]	TGI [12]	TGI [13]	TGI [14]	GI50 [13]
O=C1c2cc3c(cc2CC12Cc1cc4c(cc1C2=O)CCC4)CCCC3 (stereo not given)	> 100 µM	> 100 µM	–	> 100 µM	> 100 µM	> 100 µM	> 100 µM	> 100 µM	> 100 µM	> 100 µM	> 100 µM	> 100 µM	> 100 µM	> 100 µM	–
CCC1OC2C(CC=C(C)C)=C3OC(C)(O)C(C)(CC)C(OC(=O)c4ccccc4)C3=C3OC(=O)C=C1C32 (stereo not given)	> 100 µM	> 100 µM	> 100 µM	> 100 µM	> 100 µM	> 100 µM	> 100 µM	> 100 µM	> 100 µM	> 100 µM	44.4 µM	54.1 µM	> 100 µM	46.2 µM	–
NC(CCC(=O)NC(CSC(=O)N(O)c1ccc(Br)cc1)C(=O)NCC(=O)O)C(=O)O (stereo not given)	> 50 µM	> 100 µM	> 100 µM	> 100 µM	> 100 µM	> 50 µM	> 100 µM	> 100 µM	> 100 µM	> 50 µM	> 50 µM	> 100 µM	> 100 µM	> 100 µM	–
CCN(CC)/C(Cl)=C(Cl)\C(=C1\Nc2ccc(OC)cc21)[N+](=O)[O-]	> 100 µM	> 100 µM	> 100 µM	> 100 µM	> 100 µM	> 100 µM	> 100 µM	65 µM	> 100 µM	> 100 µM	> 100 µM	–	93.6 µM	> 100 µM	–
Cc1cc(C)cc(C(=N)c2ccccc2Cc2cccc3ccccc23)c1	46.3 µM	64.1 µM	29 µM	34.1 µM	23.2 µM	32.2 µM	33.5 µM	41.3 µM	31.8 µM	29.7 µM	54.2 µM	30 µM	26.5 µM	33 µM	–
CCN(CC)c1ccc2cc(-c3nnc(-c4ccccc4)o3)c(=O)oc2c1	> 100 µM	> 100 µM	> 100 µM	98.4 µM	> 100 µM	> 100 µM	70.6 µM	> 100 µM	> 100 µM	> 100 µM	> 100 µM	> 37.5 µM	> 100 µM	> 100 µM	–
N#CC(NNC(=O)Cc1ccccc1)c1ccccc1O (stereo not given)	> 74.6 µM	> 94.3 µM	28.8 µM	99.2 µM	> 100 µM	> 89.5 µM	36 µM	70.7 µM	> 100 µM	> 74.6 µM	> 100 µM	85.1 µM	> 54.9 µM	31.5 µM	–
COc1ccc(CCNC2=CC(=O)c3ncccc3C2=O)cc1OC	9.32 µM	3.19 µM	1.24 µM	17.2 µM	10.2 µM	3.01 µM	10.6 µM	> 79.8 µM	5.54 µM	3.57 µM	2.45 µM	4.73 µM	39.1 µM	3.14 µM	–
CCOC(=O)C(N)CSC(=O)NC (stereo not given)	362 µM	535 µM	304 µM	314 µM	321 µM	425 µM	272 µM	158 µM	308 µM	597 µM	116 µM	231 µM	147 µM	133 µM	–
CCOC(=O)C1(C(=O)OCC)CN(CC)CN(c2ccccc2)C1	> 100 µM	31.1 µM	68.5 µM	47.4 µM	> 100 µM	35.1 µM	50.1 µM	47.7 µM	> 100 µM	91.7 µM	87.9 µM	41.2 µM	59.1 µM	> 100 µM	–
COc1ccc2c(c1)CCc1c-2[nH]c2ccc(OC)cc12	> 100 µM	> 100 µM	> 100 µM	> 100 µM	> 100 µM	> 100 µM	–	> 100 µM	> 100 µM	> 100 µM	> 100 µM	–	97.7 µM	> 100 µM	–
Cc1cccc(/C=N/NC(=S)NCCc2ccccn2)n1	> 73.7 µM	> 100 µM	56.7 µM	> 100 µM	> 100 µM	> 100 µM	41.7 µM	> 100 µM	> 100 µM	> 86.3 µM	> 100 µM	> 73.3 µM	> 72.9 µM	> 100 µM	–
CC(C)CC1[C@@H](OCc2ccccc2)COS(=O)N1Cc1ccccc1 (stereo not given in full)	> 100 µM	> 100 µM	> 100 µM	> 100 µM	> 100 µM	> 100 µM	–	73.1 µM	> 100 µM	> 100 µM	> 100 µM	–	> 100 µM	> 100 µM	–
N#Cc1sc2nc(/C=C3/C=CC=CC3=O)c(O)n2c1N	> 100 µM	> 100 µM	–	> 100 µM	> 100 µM	> 100 µM	44.3 µM	60.3 µM	> 100 µM	> 100 µM	> 100 µM	60 µM	74.9 µM	> 100 µM	–
Clc1ccc(Cl)c(Nc2ccnc(SCc3ccccc3)n2)c1	> 100 µM	> 100 µM	> 100 µM	> 100 µM	> 100 µM	> 100 µM	–	> 100 µM	> 100 µM	> 100 µM	> 100 µM	> 100 µM	> 100 µM	> 100 µM	–
